Experimental data published in paper PMC3454389, “Mining the Sinorhizobium meliloti Transportome to Develop FRET Biosensors for Sugars, Dicarboxylates and Cyclic Polyols” (PLoS ONE, 2012).

Assays:
[1] = biological target: T1, rcc03024-CY (DctP) (Rhodobacter capsulatus, UniProt P37735); assay: FRET biosensor rcc03024-CY, in vitro ligand titration; type: binding; settings: for Kd: pCYS (pLMB414), Tris-HCl pH 8.5
T1 construct: made in house; host or cells: E. coli Rosetta2
T1 sequence (P37735 27-333): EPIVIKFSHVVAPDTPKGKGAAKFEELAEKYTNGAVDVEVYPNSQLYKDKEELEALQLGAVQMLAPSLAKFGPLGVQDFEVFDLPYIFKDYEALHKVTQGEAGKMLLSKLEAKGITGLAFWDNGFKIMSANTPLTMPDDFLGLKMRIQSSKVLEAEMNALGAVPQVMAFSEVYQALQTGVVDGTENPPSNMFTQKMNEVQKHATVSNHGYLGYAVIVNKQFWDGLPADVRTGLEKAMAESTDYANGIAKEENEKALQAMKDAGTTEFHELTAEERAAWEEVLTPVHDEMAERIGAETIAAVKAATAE
Description: Ligand-induced FRET ratio changes of purified FRET biosensor were screened using a LS55 luminescence spectrometer (PerkinElmer Instruments).
Non-linear regression was used to fit the curves using SigmaPlot 11 (Systat Software Inc.) (Hill equation, 4 Parameters, b = 1). All measurements were done in quadruplicate.

[2] = biological target: SMc04259-CY (Sinorhizobium meliloti, UniProt Q92P64); assay: FRET biosensor SMc04259-CY, in vitro ligand titration; type: binding; settings: for change in FRET with compound: SMc04259-CY
Chain of SMc04259-CY (Q92P64 entry or part of it): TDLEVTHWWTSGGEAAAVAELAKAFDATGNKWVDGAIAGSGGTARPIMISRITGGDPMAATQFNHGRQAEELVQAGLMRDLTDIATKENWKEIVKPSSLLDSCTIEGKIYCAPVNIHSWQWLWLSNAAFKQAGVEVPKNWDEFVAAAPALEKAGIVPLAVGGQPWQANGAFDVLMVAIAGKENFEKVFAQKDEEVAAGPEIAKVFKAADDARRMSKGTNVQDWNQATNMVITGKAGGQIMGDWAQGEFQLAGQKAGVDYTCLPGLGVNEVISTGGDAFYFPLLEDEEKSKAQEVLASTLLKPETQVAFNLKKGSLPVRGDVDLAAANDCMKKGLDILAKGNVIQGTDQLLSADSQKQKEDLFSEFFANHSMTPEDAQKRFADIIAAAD
Procedure: (§1) Ligand-induced FRET ratio changes of purified FRET biosensor were screened using a LS55 luminescence spectrometer (PerkinElmer Instruments). Excitation (ex.) was at (λ/slit width) 433/10 nm (CFP) or 549/10 nm (OFP). Emission (em.) was measured at 475/10 nm (CFP), 527/10 nm (YFP), 573/10 nm (OFP) and 644/10 nm (RFP). To confirm that Aphrodite and mKate2 were properly folded their fluorescence was individually tested by direct excitation at 510/6 nm and 588/10 nm respectively.
(§2) Affinity constants (Kd) of FRET biosensors with specific ligands were established using a monochromator microplate reader (Safire, Tecan, Switzerland; CFP ex.: (λ\bandwidth) 433/12 nm, em.: 475/12 nm; YFP em.: 527/12 nm. OFP ex.: 533/12 nm, em.: 563/12 nm; RFP em.: 615/12 nm). Proteins were diluted to give relative fluorescence units (RFU) in the detection range of 30,000 to 50,000 RFU at a gain of 90 to 100, and then were added to a dilution series (10^−3 to 10^−11 M) of ligand in Tris-HCl (pH 8.5, 50 mM). The change in relative emission intensities at 527/477 nm (YFP/CFP) or 615/563 nm (RFP/OFP) was used to determine Kd by fitting the titration curves to a single-site-binding isotherm: [drawing 1] with: R, ratio; Rapo, ratio without ligand; Rsat, ratio at saturation of ligand; n, number of equal binding sites; [L], ligand concentration. Non-linear regression was used to fit the curves using SigmaPlot 11 (Systat Software Inc.) (Hill equation, 4 Parameters, b = 1). All measurements were done in quadruplicate.

[3] = test system: SMb20036 FBS-RO version; assay: FBS-RO version of SMb20036 biosensor, FRET ratio change on ligand; type: binding, Sinorhizobium meliloti; settings: FBS-RO version (RFP/OFP) of SMb20036
Procedure: as §1
as §2, with “Non-linear regression was used to fit the curves using SigmaPlot 11 (Systat Software Inc.) (Hill equation, 4 Parameters, b = 1). All measurements were done in quadruplicate.” left out

[4] = biological target: SMb20036-CY (Sinorhizobium meliloti, UniProt Q92XC3); assay: biochemical; type: binding; settings: for change in FRET ratio on addition of compound: compounds similar in structure to D-quinic acid
Chain of SMb20036-CY (Q92XC3 entry or part of it): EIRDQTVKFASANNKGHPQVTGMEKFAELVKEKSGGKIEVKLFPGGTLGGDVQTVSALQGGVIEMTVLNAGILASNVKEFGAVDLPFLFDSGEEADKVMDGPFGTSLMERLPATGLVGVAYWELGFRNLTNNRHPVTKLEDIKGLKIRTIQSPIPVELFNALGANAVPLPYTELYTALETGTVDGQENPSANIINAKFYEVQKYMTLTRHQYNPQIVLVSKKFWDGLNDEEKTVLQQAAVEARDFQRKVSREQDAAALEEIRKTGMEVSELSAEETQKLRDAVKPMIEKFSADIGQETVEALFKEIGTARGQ
Procedure: as §1, §2

[5] = test system: SMc04259-RO; assay: SMc04259-RO, FRET ratio change on ligand; type: binding, Sinorhizobium meliloti
Procedure: as §1
as §2, with “Non-linear regression was used to fit the curves using SigmaPlot 11 (Systat Software Inc.) (Hill equation, 4 Parameters, b = 1). All measurements were done in quadruplicate.” left out

[6] = biological target: SMc02324-CY (Sinorhizobium meliloti, UniProt Q92S11); assay: FRET biosensor SMc02324-CY, in vitro ligand titration; type: binding; settings: for Kd: pCYS (pLMB291), Tris-HCl pH 8.5
Chain of SMc02324-CY (Q92S11 entry or part of it): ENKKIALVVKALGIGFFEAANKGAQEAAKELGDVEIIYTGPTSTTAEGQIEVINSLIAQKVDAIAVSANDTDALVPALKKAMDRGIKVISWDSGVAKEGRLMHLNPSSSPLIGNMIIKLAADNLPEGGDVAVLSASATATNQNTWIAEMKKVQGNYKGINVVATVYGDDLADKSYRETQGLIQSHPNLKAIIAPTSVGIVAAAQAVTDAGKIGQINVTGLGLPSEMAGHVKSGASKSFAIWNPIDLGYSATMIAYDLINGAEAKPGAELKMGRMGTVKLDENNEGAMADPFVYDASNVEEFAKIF
Procedure: as §1, §2

[7] = biological target: SMc02324-RO (Sinorhizobium meliloti, UniProt Q92S11); assay: FRET biosensor SMc02324-RO, in vitro ligand titration; type: binding; settings: pROS (pLMB523), Tris-HCl pH 8.5
Chain of SMc02324-RO (Q92S11 entry or part of it): as above
Procedure: as §1
as §2, with “Non-linear regression was used to fit the curves using SigmaPlot 11 (Systat Software Inc.) (Hill equation, 4 Parameters, b = 1). All measurements were done in quadruplicate.” left out

[8] = biological target: SMc02774-CY (Sinorhizobium meliloti, UniProt Q92TD7); assay: FRET biosensor SMc02774-CY, in vitro ligand titration; type: binding; settings: for Kd: SMc02774-CY, pCYS (pLMB292), Tris-HCl pH 8.5
Chain of SMc02774-CY (Q92TD7 entry or part of it): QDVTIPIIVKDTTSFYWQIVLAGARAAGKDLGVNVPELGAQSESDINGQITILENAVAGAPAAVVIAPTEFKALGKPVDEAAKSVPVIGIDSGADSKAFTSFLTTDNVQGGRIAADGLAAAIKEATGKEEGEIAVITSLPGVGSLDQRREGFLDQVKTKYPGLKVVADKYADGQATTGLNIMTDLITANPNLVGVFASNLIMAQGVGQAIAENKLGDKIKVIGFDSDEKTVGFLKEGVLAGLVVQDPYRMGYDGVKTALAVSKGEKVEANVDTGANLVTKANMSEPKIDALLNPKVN
Procedure: as §1, §2

[9] = biological target: T2, rcc03024-RO (Rhodobacter capsulatus, UniProt P37735); assay: rcc03024-RO, FRET ratio change on ligand; type: binding
T2 construct: made in house; host or cells: E. coli Rosetta2
T2 sequence (P37735 27-333): T1 sequence (P37735 27-333)
Procedure: as §1
as §2, with “Non-linear regression was used to fit the curves using SigmaPlot 11 (Systat Software Inc.) (Hill equation, 4 Parameters, b = 1). All measurements were done in quadruplicate.” left out

Question: For O=C(O)/C=C\C(=O)O [maleate], which “change in FRET ratio on addition of compound” value [1] is on record?
Answer: no change in FRET ratio

Question: For O=C[C@H](O)[C@@H](O)[C@H](O)CO [xylose], which “change in FRET with compound” value [2] is on record?
Answer: no change in FRET

Question: For O=C(O)[C@]1(O)C[C@@H](O)[C@@H](O)[C@H](O)C1 [D-quinic acid], which “change in FRET ratio on binding ligand” value [3] is on record?
Answer: no change in FRET ratio

Question: What about the “difference in the affinity for D-quinic acid compared with that for shikimic acid” value [4] of the same compound?
Answer: > 15,000 fold

Question: And the Kd ([4]; pCYS (pLMB229), Tris-HCl pH 8.5)?
Answer: 5.9 nM

Question: O=C(O)CCC(=O)C(=O)O [α-ketoglutarate] was tested. Which “change in FRET ratio on addition of compound” value [1] did it give?
Answer: no change in FRET ratio

Question: Which results are given for O=C[C@H](O)[C@@H](O)[C@H](O[C@@H]1O[C@H](CO)[C@@H](O)[C@H](O)[C@H]1O)[C@H](O)CO [cellobiose]?
Answer: change in FRET ratio on binding ligand [5]: no change in FRET ratio; Kd [2]: 33 nM

Question: O=C(O)CC(=O)O [malonate] was tested. Which “change in FRET ratio on addition of compound” value [1] did it give?
Answer: no change in FRET ratio

Question: What does the source list for O=C(O)/C=C/C(=O)O [fumarate]?
Answer: ΔFRET on saturation (%) ([1]; change in FRET ratio on ligand binding): −2.7±0.2%; Kd [1]: 58 nM

Question: [2H]C(=O)C[C@H](O)[C@H](O)CO [deoxy-D-ribose] was tested. Which “reaction of biosensor with compound (FRET)” value ([6]; SMc02324-CY) did it give?
Answer: did not react

Question: Which results are given for C[C@H](O)[C@@H](O)[C@@H](O)[C@H](O)C=O [L-fucose]?
Answer: Kd [7]: 19000 nM; difference between the affinity of SMc02774-CY for L-fucose compared to its affinity for L-rhamnose [8]: three order-magnitude difference; Kd [8]: 3.6 nM; Kd ([6]; SMc02324-CY): 11000 nM

Question: With OC[C@H]1OC(O)[C@@H](O)[C@@H](O)[C@@H]1O (stereo partly shown) [mannose] as the compound, how does the “change in FRET with compound” value [2] read?
Answer: no change in FRET

Question: CC(=O)N[C@H]1[C@H]([C@H](O)[C@H](O)CO)OC(O)(C(=O)O)C[C@@H]1O (stereo partly shown) [N-acetyl-5-neuraminic acid] was tested. Which “change in FRET ratio on addition of compound” value [4] did it give?
Answer: no change in FRET ratio

Question: With O=C(O)c1cc(O)c(O)c(O)c1 [gallic acid] as the compound, how does the “change in FRET ratio on addition of compound” value [4] read?
Answer: no change in FRET ratio

Question: OC[C@H]1O[C@@H](O[C@H]2[C@H](O)[C@@H](O)[C@H](O)O[C@@H]2CO)[C@H](O)[C@@H](O)[C@H]1O [lactose] was tested. Which “change in FRET with compound” value [2] did it give?
Answer: no change in FRET

Question: With O=C(O)C[C@H](O)C(=O)O [L-malate] as the compound, how does the “change in FRET ratio on binding ligand” value [9] read?
Answer: no change in FRET ratio

Question: And the Kd [1]?
Answer: 70 nM

Question: How did the “change in FRET with compound” value [2] turn out when OC[C@H]1O[C@H](O[C@H]2[C@H](O)[C@@H](O)[C@H](O)O[C@@H]2CO)[C@H](O)[C@@H](O)[C@@H]1O [maltose] was run?
Answer: no change in FRET

Question: Which Kd [7] does the source give for C[C@H](O)[C@H](O)[C@@H](O)[C@@H](O)C=O [L-rhamnose] here?
Answer: 6.9 nM

Question: What about the Kd [8] of the same compound?
Answer: 1600 nM

Question: What about the “difference in affinity of SMc02324 for L-rhamnose compared to L-fucose” value [6] of the same compound?
Answer: three order-magnitude difference

Question: And the Kd ([6]; SMc02324-CY)?
Answer: 7.3 nM

Question: O=C(O)CC(O)(CC(=O)O)C(=O)O [citrate] was tested. Which “change in FRET ratio on addition of compound” value [1] did it give?
Answer: no change in FRET ratio
